Active and inactive are the calls of the source. No cut-off for these calls is given here.
Key:
[1] = tested on: K562; test: Antiproliferative activity against human K562 cells incubated for 3 days by CCK8 assay; type: functional, cell-based; conditions: K562, 72 h
[2] = tested on: BaF3; test: Antiproliferative activity against wild type mouse BA/F3 cells incubated for 3 days by CCK8 assay; type: cell-based; conditions: BaF3, 72 h
[3] = molecular target: Protein cereblon/Tyrosine-protein kinase ABL1/Breakpoint cluster region protein (Homo sapiens, UniProt P00519+P11274+Q96SW2); test: Protac activity at Cereblon/BCR/ABL in human K562 cells assessed as induction of BCR-ABL degradation incubated for 32 to 48 hrs by Western blot analysis; type: cell-based
[4] = molecular target: Protein cereblon/Tyrosine-protein kinase ABL1/Breakpoint cluster region protein (Homo sapiens, UniProt P00519+P11274+Q96SW2, T315I); type: cell-based, BaF3
[5] = tested on: Protein cereblon/Tyrosine-protein kinase ABL1/Breakpoint cluster region protein (Homo sapiens), P00519+P11274+Q96SW2 [T315I]; test: Protac activity at Cereblon/BCR/ABL T315I mutant (unknown origin) expressed in mouse BaF3 cells assessed as reduction in BCR-ABL T315I mutant protein levels at 3 to 30000 nM incubated for 32 hrs by Western blot analysis; type: cell-based
[6] = tested on: HUVEC; test: Antiproliferative activity against human HUVEC incubated for 3 days by CCK8 assay; type: cell-based; conditions: 72 h
[7] = tested on: H9c2; test: Antiproliferative activity against rat H9C2 cells incubated for 3 days by CCK8 assay; type: cell-based; conditions: H9c2, 72 h
[8] = tested on: HUVEC; test: Toxicity in HUVEC assessed as inhibition of tube formation at 200 nM incubated for 20 hrs by optical microscopy based matrigel-based assay; type: cell-based; conditions: human, 0.2 µM
[9] = tested on: Protein cereblon/Tyrosine-protein kinase ABL1/Breakpoint cluster region protein (Homo sapiens), P00519+P11274+Q96SW2 [T315I]; test: Protac activity at Cereblon/BCR/ABL T315I mutant (unknown origin) expressed in mouse BaF3 cells assessed as reduction in BCR-ABL T315I mutant protein levels at 1 uM incubated for 48 hrs by Western blot analysis; type: cell-based
[10] = tested on: Protein cereblon/Tyrosine-protein kinase ABL1/Breakpoint cluster region protein (Homo sapiens), P00519+P11274+Q96SW2 [T315I]; test: Protac activity at Cereblon/BCR/ABL T315I mutant (unknown origin) expressed in mouse BaF3 cells assessed as reduction in BCR-ABL T315I mutant protein levels at 3 to 30000 nM incubated for 48 hrs by Western blot analysis; type: cell-based

DC50 [3] [nM] | Compound | EC50 [4] [nM] | further results
70 | Cc1ccc(C(=O)Nc2ccc(CN3CCN(C(=O)CCCc4cn(CCOCCOCCNc5cccc6c5C(=O)N(C5CCC(=O)NC5=O)C6=O)nn4)CC3)c(C(F)(F)F)c2)cc1C#Cc1cnc2cccnn12 (stereo not given) |  | 
70 | Cc1ccc(C(=O)Nc2ccc(CN3CCN(C(=O)CCCc4cn(CCOCCOCCOCCOCCNc5cccc6c5C(=O)N(C5CCC(=O)NC5=O)C6=O)nn4)CC3)c(C(F)(F)F)c2)cc1C#Cc1cnc2cccnn12 (stereo not given) |  | 
> 10000 | Cc1ccc(NC(=O)c2ccc(CN3CCN(C(=O)CCCc4cn(CCOCCNc5cccc6c5C(=O)N(C5CCC(=O)NC5=O)C6=O)nn4)CC3)cc2)cc1Nc1nccc(-c2cccnc2)n1 (stereo not given) |  | 
> 10000 | Cc1ccc(NC(=O)c2ccc(CN3CCN(C(=O)CCCc4cn(CCOCCOCCOCCOCCNc5cccc6c5C(=O)N(C5CCC(=O)NC5=O)C6=O)nn4)CC3)cc2)cc1Nc1nccc(-c2cccnc2)n1 (stereo not given) |  | 
> 625 | O=C1CCC(N2C(=O)c3cccc(NCCn4cc(CCCC(=O)N[C@@H]5CCN(c6ncc(C(=O)Nc7ccc(OC(F)(F)Cl)cc7)cc6-c6cc[nH]n6)C5)nn4)c3C2=O)C(=O)N1 (stereo not given in full) |  | 
56 | Cc1nc(Nc2ncc(C(=O)Nc3c(C)cccc3Cl)s2)cc(N2CCN(C(=O)CCCc3cn(CCOCCNc4cccc5c4C(=O)N(C4CCC(=O)NC4=O)C5=O)nn3)CC2)n1 (stereo not given) |  | 
> 10000 | Cc1ccc(NC(=O)c2ccc(CN3CCN(C(=O)CCCc4cn(CCOCCOCCOCCNc5cccc6c5C(=O)N(C5CCC(=O)NC5=O)C6=O)nn4)CC3)cc2)cc1Nc1nccc(-c2cccnc2)n1 (stereo not given) |  | 
56 | Cc1nc(Nc2ncc(C(=O)Nc3c(C)cccc3Cl)s2)cc(N2CCN(C(=O)CCCc3cn(CCNc4cccc5c4C(=O)N(C4CCC(=O)NC4=O)C5=O)nn3)CC2)n1 (stereo not given) |  | 
> 10000 | Cc1ccc(NC(=O)c2ccc(CN3CCN(C(=O)CCCc4cn(CCOCCOCCNc5cccc6c5C(=O)N(C5CCC(=O)NC5=O)C6=O)nn4)CC3)cc2)cc1Nc1nccc(-c2cccnc2)n1 (stereo not given) |  | 
400 | O=C1CCC(N2C(=O)c3cccc(NCCOCCn4cc(CCCC(=O)N[C@@H]5CCN(c6ncc(C(=O)Nc7ccc(OC(F)(F)Cl)cc7)cc6-c6cc[nH]n6)C5)nn4)c3C2=O)C(=O)N1 (stereo not given in full) |  | 
> 10000 | Cc1ccc(NC(=O)c2ccc(CN3CCN(C(=O)CCCc4cn(CCNc5cccc6c5C(=O)N(C5CCC(=O)NC5=O)C6=O)nn4)CC3)cc2)cc1Nc1nccc(-c2cccnc2)n1 (stereo not given) |  | 
70 | Cc1ccc(C(=O)Nc2ccc(CN3CCN(C(=O)CCCc4cn(CCOCCNc5cccc6c5C(=O)N(C5CCC(=O)NC5=O)C6=O)nn4)CC3)c(C(F)(F)F)c2)cc1C#Cc1cnc2cccnn12 (stereo not given) |  | 
625 | Cc1ccc(C(=O)Nc2ccc(CN3CCN(C(=O)CCCc4cn(CCNc5cccc6c5C(=O)N(C5CCC(=O)NC5=O)C6=O)nn4)CC3)c(C(F)(F)F)c2)cc1C#Cc1cnc2cccnn12 (stereo not given) |  | 
56 | Cc1nc(Nc2ncc(C(=O)Nc3c(C)cccc3Cl)s2)cc(N2CCN(C(=O)CCCc3cn(CCOCCOCCOCCNc4cccc5c4C(=O)N(C4CCC(=O)NC4=O)C5=O)nn3)CC2)n1 (stereo not given) |  | 
20 | Cc1nc(Nc2ncc(C(=O)Nc3c(C)cccc3Cl)s2)cc(N2CCN(C(=O)CCCc3cn(CCOCCOCCNc4cccc5c4C(=O)N(C4CCC(=O)NC4=O)C5=O)nn3)CC2)n1 (stereo not given) |  | 

Second part, the compound before the results:

Compound | DC50 [3] [nM] | EC50 [4] [nM] | further results
O=C1CCC(N2C(=O)c3cccc(NCCOCCOCCOCCn4cc(CCCC(=O)N[C@@H]5CCN(c6ncc(C(=O)Nc7ccc(OC(F)(F)Cl)cc7)cc6-c6cc[nH]n6)C5)nn4)c3C2=O)C(=O)N1 (stereo not given in full) | 200 | 1020 | IC50 [1]: 121 nM; EC50 [2]: > 10000 nM; Activity [5]: Active
C#CCCCC(=O)N1CCN(c2cc(Nc3ncc(/C=C/c4cccc(O)c4)s3)nc(C)n2)CC1 |  | 1300 | 
C#CCCCC(=O)N1CCN(c2cc(Nc3ncc(/C=C/c4cccc(F)c4)s3)nc(C)n2)CC1 |  | 770 | 
Cc1ccc(C(=O)Nc2ccc(CN3CCN(C)CC3)c(C(F)(F)F)c2)cc1C#Cc1cnc2cccnn12 [PONATINIB] |  |  | IC50 [1]: 0.3 nM; EC50 [6]: 515 nM; EC50 [7]: 379 nM; EC50 [2]: 438 nM; Activity [8]: Toxic
O=C1CCC(N2C(=O)c3cccc(NCCOCCOCCn4cc(CCCC(=O)N[C@@H]5CCN(c6ncc(C(=O)Nc7ccc(OC(F)(F)Cl)cc7)cc6-c6cc[nH]n6)C5)nn4)c3C2=O)C(=O)N1 (stereo not given in full) | 300 |  | 
O=C1CCC(N2C(=O)c3cccc(NCCOCCOCCOCCOCCn4cc(CCCC(=O)N[C@@H]5CCN(c6ncc(C(=O)Nc7ccc(OC(F)(F)Cl)cc7)cc6-c6cc[nH]n6)C5)nn4)c3C2=O)C(=O)N1 (stereo not given in full) | 500 |  | 
Cc1cccc(/C=C/c2cnc(Nc3cc(N4CCN(C(=O)CCCc5cn(CCOCCOCCOCCOCCNc6cccc7c6C(=O)N(C6CCC(=O)NC6=O)C7=O)nn5)CC4)nc(C)n3)s2)c1 (stereo not given) |  | 6100 | EC50 [2]: > 10000 nM; Activity [9]: Active; Activity [10]: Active
C#CCCCC(=O)N1CCN(c2cc(Nc3ncc(/C=C/c4cccc(C)c4)s3)nc(C)n2)CC1 |  | 450 | 
C#CCCCC(=O)N1CCN(c2cc(Nc3ncc(/C=C/c4ccc(F)c(F)c4)s3)nc(C)n2)CC1 |  | 570 | 
C#CCCCC(=O)N1CCN(c2cc(Nc3ncc(C)s3)nc(C)n2)CC1 |  | > 10000 | 
C#CCCCC(=O)N1CCN(c2cc(Nc3ncc(/C=C/c4ccc(F)cc4)s3)nc(C)n2)CC1 |  | 3200 | 
Cc1ccc(NC(=O)c2ccc(CN3CCN(C)CC3)cc2)cc1Nc1nccc(-c2cccnc2)n1 [IMATINIB] |  |  | IC50 [1]: 76.2 nM
C#CCCCC(=O)N1CCN(c2cc(Nc3ncc(/C=C/c4cc(F)cc(F)c4)s3)nc(C)n2)CC1 |  | 1500 | 
Cc1nc(Nc2ncc(C(=O)Nc3c(C)cccc3Cl)s2)cc(N2CCN(C(=O)CCCc3cn(CCOCCOCCOCCOCCNc4cccc5c4C(=O)N(C4CCC(=O)NC4=O)C5=O)nn3)CC2)n1 (stereo not given) | 10 | > 10000 | IC50 [1]: 9.2 nM; EC50 [2]: > 10000 nM; Activity [10]: inactive
C#CCCCC(=O)N1CCN(c2cc(Nc3ncc(/C=C/c4cccc(OC)c4)s3)nc(C)n2)CC1 |  | > 10000 | 
Cc1nc(Nc2ncc(C(=O)Nc3c(C)cccc3Cl)s2)cc(N2CCN(CCCCCCOCCOCCOCCCCCC(=O)Nc3cccc4c3C(=O)N(C3CCC(=O)NC3=O)C4=O)CC2)n1 (stereo not given) |  |  | IC50 [1]: 8 nM; EC50 [2]: > 10000 nM; Activity [10]: inactive
Cc1nc(Nc2ncc(C(=O)Nc3c(C)cccc3Cl)s2)cc(N2CCN(CCO)CC2)n1 [DASATINIB] |  |  | IC50 [1]: 0.19 nM; EC50 [2]: > 10000 nM
